Assay results: patent publication US20090209485A1, “MODULATING ANGIOGENESIS WITH NOD FACTORS SUCH AS GLUCOSAMINE OLIGOSACCHARIDES” (priority 2005, published 2009)

What was measured:
Assay type in all cases: cell-based
[1] = test system: HUVEC (human umbilical vein endothelial cells); assay: HUVEC assay: tube formation on matrigel; details: 100 μg/ml, overnight incubation; for Inhibition of HUVEC cell “tiling” and/or change in tube morphology+/−: Matrigel + HUVEC
Description: HUVEC (human umbilical vein endothelial cells) form tubes on a matrigel support. The tubes form a “paving tile” formation after overnight incubation. Nod factor and derivative thereof were added at 100 μg/ml to determine if they inhibited tube formation and/or caused a change in tube morphology.

rat aorta [2] = assay: Rat aorta angiogenesis assay (vessel outgrowth from aorta fragments in fibrin gel)
Description: Thoracic aortas were excised from three to nine month-old female Fischer rats, rinsed in Hanks balanced salt solution containing 2.5 μg/ml amphotericin B (Sigma, St Louis, Mo.), cleaned of periadventitial fibroadipose tissue and cross-sectioned at 1 mm intervals. The fragments were freed of residual clots. Dissecting and sectioning of the vessels was performed with the aid of a dissecting microscope.
Assays were performed in 48-well culture plates (Costar, Cambridge, Mass.). Five hundred microlitres of 3 mg/ml fibrinogen (bovine plasma, Calbiochem, La Jolla, Calif.) in serum free-Medium 199 (GibcoBRL) was added to each well with 5 μg/ml of aprotinin (Sigma) to prevent fibrinolysis by the vessel fragments. One vessel fragment was placed in the centre of the well and 15 μl of thrombin (50 NIH U/ml in 0.15M NaCl: bovine plasma: Sigma St Louis, Mo.) was added to the well and mixed rapidly with the fibrinogen. Fibrin gel formation usually occurred within 30 seconds and ideally the vessel fragment remained suspended in the centre of the gel. After gel formation, 0.5 ml/well of Medium M199 supplemented with 20% fetal calf serum (FCS) (Sigma), 0.1% 6-aminocaproic acid, 1% L-glutamine, 1%-amphotericin B and 0.6% gentamycin was added. The substances tested for angiogenesis modulating activity (compounds PI-88, 1, 2, 3, 4, 5, 6 and 7) were dissolved in 50% acetonitrile in ultrapure water and diluted at least 1:100 in the supplemented medium M199. Immediately after embedding of vessel fragment in the fibrin gels, 0.5 ml of medium containing the test substance was added to each well and each treatment was performed in six wells. Control cultures received medium without the test substance. Vessels were cultured at 37° C. in 5% CO2 in air for five days and the medium was changed on day four. Vessel growth was quantified manually under 40× magnification on day five, with growth being estimated as the percentage of the field (×40) around the vessel fragment that was occupied by vessel outgrowths.

rat aorta [3] = assay: as above; details: Table 4, day 6, concentration not given
Mouse Aorta = assay: Mouse aorta angiogenesis assay (vessel outgrowth from aorta fragments in fibrin gel); details: Table 5
Description: Thoracic aortas were excised from 6-8 week old female C57 BL/6 mice, rinsed in Hanks balanced salt solution containing 2.5 μg/ml amphotericin B (Sigma, St Louis, Mo.) cleaned of periadventitial fibroadipose tissue and cross-sectioned at 1 mm intervals. The fragments were freed of residual clots. Dissecting and sectioning of the vessels was performed with the aid of a dissecting microscope. Assays were performed in 48-well culture plates (Costar, Cambridge, Mass.). Five hundred microlitres of 3 mg/ml fibrinogen (bovine plasma, Calbiochem, La Jolla, Calif.) in serum free-Medium 199 (GibcoBRL)) was added to each well with 5 ug/ml of aprotinin (Sigma) to prevent fibrinolysis by the vessel fragments. One vessel fragment was placed in the centre of the well and 15 ul of thrombin (50 NIH U/ml in 0.15M NaCl: EC 3.4.21.5 bovine plasma: Sigma St Louis, Mo.) was added to the well and mixed rapidly with the fibrinogen. Fibrin gel formation usually occurred within 30 seconds and ideally the vessel fragment remained suspended in the centre of the gel. […] Vessel growth was quantified manually under 40× magnification on day 7, with growth being estimated as the percentage of the field (×40) around the vessel fragment that was occupied by vessel outgrowths (see Table 5). • ^§Brown, K. J., Maynes, S. F., Bezos, A., Maguire, D. J., Ford, M. D., & Parish, C. […]

[4] = Table 1, 10 μg/mL, % of field occupied by vessel outgrowths, control 82 ± 3.2
[5] = Table 1, 10 μg/mL, '+' = growth above control
[6] = Table 1, 100 μg/mL, % of field around vessel fragment occupied by vessel outgrowths, control 82 ± 3.2
[7] = Table 1, 100 μg/mL, '+' = growth above control
[8] = Table 3, Assay 1, testing at 100 μg/mL
[9] = Table 3, Assay 2, testing at 100 μg/mL, '+' = growth above control
[10] = Table 3, Assay 3, testing at 100 μg/mL, '+' = growth above control
[11] = Table 3, Assay 4, testing at 10 μg/mL
[12] = Table 3, Assay 5, testing at 10 μg/mL
[13] = Table 4, Assay 1, day 5, control growth 27%, concentration not given
[14] = Table 4, Assay 2, day 5, control growth 48%, concentration not given

Compound | Inhibition of HUVEC cell “tiling” and/or change in tube morphology+/− [1] | % Growth (rat aorta [2]; [4]) | % Growth (rat aorta [2]; [6]) | % Inhibit. (rat aorta [2]; [7]) | % Inhibition (rat aorta [2]; [8]) | % Inhibition (rat aorta [2]; [9]) | % Inhibition (rat aorta [2]; [10]) | % Inhibition (rat aorta [2]; [11]) | % Inhibition (rat aorta [2]; [12]) | % Inhibition (rat aorta [2]; [14]) | % Inhibition (rat aorta [3]; Assay 2, control growth 63%) | other results
CC(=O)N[C@H]1[C@H](O[C@H]2[C@H](O)[C@@H](NC(C)=O)[C@H](O[C@H]3[C@H](O)[C@@H](NC(C)=O)[C@H](O[C@H]4[C@H](O)[C@@H](NC(C)=O)C(O)O[C@@H]4CO)O[C@@H]3CO)O[C@@H]2CO)O[C@H](CO)[C@@H](O[C@@H]2O[C@H](CO)[C@@H](O)[C@H](O)[C@H]2N)[C@@H]1O (some centres unmarked) [Compound 1] | Yes | 80 ± 8.4% | 53 ± 8.0% | 35% | – | – | – | – | – | – | – | % Inhibit. (rat aorta [2]; [5]): 2.4%
CC(=O)N[C@H]1[C@H](O[C@H]2[C@H](O)[C@@H](NC(C)=O)[C@H](O[C@H]3[C@H](O)[C@@H](NC(C)=O)[C@H](O[C@H]4[C@H](O)[C@@H](NC(C)=O)C(O)O[C@@H]4CO[C@@H]4O[C@@H](C)[C@@H](O)[C@@H](O)[C@@H]4O)O[C@@H]3CO)O[C@@H]2CO)O[C@H](CO)[C@@H](O[C@@H]2O[C@H](CO)[C@@H](O)[C@H](O)[C@H]2N)[C@@H]1O (some centres unmarked) [Compound 6] | Yes | 73 ± 7.5% | 53 ± 4.8% | 35% | – | – | – | – | – | – | – | % Inhibit. (rat aorta [2]; [5]): 11%
CO[C@@H]1[C@H](OC[C@H]2OC(O)[C@H](NC(C)=O)[C@@H](O)[C@@H]2O[C@@H]2O[C@H](CO)[C@@H](O[C@@H]3O[C@H](CO)[C@@H](O[C@@H]4O[C@H](CO)[C@@H](O[C@@H]5O[C@H](CO)[C@@H](O)[C@H](O)[C@H]5N)[C@H](O)[C@H]4NC(C)=O)[C@H](O)[C@H]3NC(C)=O)[C@H](O)[C@H]2NC(C)=O)O[C@@H](C)[C@@H](O)[C@H]1O (some centres unmarked) [Compound 7] | Yes | 94 ± 4.0% | 90 ± 6.3% | – | – | – | – | – | – | – | – | –
CC(=O)N[C@H]1[C@H](O[C@H]2[C@H](O)[C@@H](NC(C)=O)[C@H](O[C@H]3[C@H](O)[C@@H](NC(C)=O)C(O)O[C@@H]3COS(=O)(=O)O)O[C@@H]2CO)O[C@H](CO)[C@@H](O[C@@H]2O[C@H](CO)[C@@H](O)[C@H](O)[C@H]2N)[C@@H]1O (some centres unmarked) [Compound 21] | – | – | – | – | 74% | 41% | 40% | 24% | 33% | – | – | –
CC(=O)N[C@H]1C(O)O[C@H](CO)[C@@H](O[C@@H]2O[C@H](CO)[C@@H](O)[C@H](O)[C@H]2N)[C@@H]1O (some centres unmarked) [Compound 22] | – | – | – | – | 5% | – | – | 24% | 16% | 6% | 0% | % Inhibition (rat aorta [2]; [13]): 33%
CC(=O)N[C@H]1[C@H](O[C@H]2[C@H](O)[C@@H](NC(C)=O)[C@H](O[C@H]3[C@H](O)[C@@H](NC(C)=O)C(O)O[C@@H]3CO)O[C@@H]2CO)O[C@H](CO)[C@@H](O[C@@H]2O[C@H](CO)[C@@H](O)[C@H](O)[C@H]2N)[C@@H]1O (some centres unmarked) [Compound 23] | – | – | – | – | – | 66% | 29% | 14% | 24% | – | – | –
CC(=O)N[C@H]1[C@H](O[C@H]2[C@H](O)[C@@H](NC(C)=O)[C@H](O[C@H]3[C@H](O)[C@@H](NC(C)=O)C(O)O[C@@H]3CO[C@@H]3O[C@@H](C)[C@@H](O)[C@@H](O)[C@@H]3O)O[C@@H]2CO)O[C@H](CO)[C@@H](O[C@@H]2O[C@H](CO)[C@@H](O[C@@H]3O[C@H](CO)[C@@H](O)[C@H](O)[C@H]3NC(=O)Cc3ccccc3)[C@H](O)[C@H]2NC(C)=O)[C@@H]1O (some centres unmarked) [Compound 24] | – | – | – | – | – | – | – | 3% | 1% | 6% | 8% | –
CCCCCCC=CCCCOc1cccc(C(=O)N[C@H]2[C@H](O[C@H]3[C@H](O)[C@@H](NC(C)=O)[C@H](O[C@H]4[C@H](O)[C@@H](NC(C)=O)[C@H](O[C@H]5[C@H](O)[C@@H](NC(C)=O)[C@H](O[C@H]6[C@H](O)[C@@H](NC(C)=O)C(O)O[C@@H]6CO[C@@H]6O[C@@H](C)[C@@H](O)[C@@H](O)[C@@H]6O)O[C@@H]5CO)O[C@@H]4CO)O[C@@H]3CO)O[C@H](CO)[C@@H](O)[C@@H]2O)c1 (some centres unmarked) [Compound 25] | – | – | – | – | – | 76% | 73% | 24% | 21% | – | – | % Inhibition (rat aorta [2]; Table 3, Assay 6, testing at 1.0 μg/mL): 8%; % Inhibition (rat aorta [2]; Table 3, Assay 7, testing at 1.0 μg/mL): 3%
CC(=O)N[C@H]1[C@H](O[C@H]2[C@H](O)[C@@H](NC(C)=O)[C@H](O[C@H]3[C@H](O)[C@@H](NC(C)=O)[C@H](O[C@H]4[C@H](O)[C@@H](NC(C)=O)C(O)O[C@@H]4CO[C@@H]4O[C@@H](C)[C@@H](O)[C@@H](O)[C@@H]4O)O[C@@H]3CO)O[C@@H]2CO)O[C@H](CO)[C@@H](O[C@@H]2O[C@H](CO)[C@@H](O)[C@H](O)[C@H]2N=[N+]=[N-])[C@@H]1O (some centres unmarked) [Compound 26] | – | – | – | – | – | 3% | 15% | – | – | – | – | –
PI-88 [reference compound] | Yes | – | 25 ± 5.4% | 69% | 82% | 77% | 68% | 18% | 14% | 66% | 70% | effect on HUVEC tube formation ([1]; matrigel): affected tube formation; % Inhibit. (rat aorta [2]; Table 2, 100 μg/mL): 47%; % Growth (rat aorta [2]; Table 2, 100 μg/mL, control 74 ± 3.8): 39 ± 6.1%; % Inhibition (rat aorta [2]; [13]): 91%; % Inhibition (rat aorta [2]; Table 4, Assay 1, day 7, control growth 68%, concentration not given): 77%; % Inhibition (rat aorta [2]; Table 4, Assay 2, day 7, control growth 83%, concentration not given): 68%; % Inhibition (rat aorta [3]; Assay 1, control growth 43%): 80%; % Inhibition (Mouse Aorta; 10 μg/ml): 30%; % Inhibition (Mouse Aorta; 100 μg/ml): 93%
